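These data come from cells grown in 96-well plates and exposed to compound for 48 hours at five concentrations. At the GI50, growth is halved.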 The source made the active and inactive calls. Cut-off read from the data, not from the text of the source: active = GI50 up to about 1.1 µM and inactive = higher.
Tests used:
Test in all cases: DTP human tumour cell line panel, 48 h
CAKI-1 = system: CAKI-1
CCRF-CEM = system: CCRF-CEM
HCC 2998 = system: HCC 2998
HCT-15 = system: HCT-15
HOP-92 = system: HOP-92
IGROV-1 = system: IGROV-1
KM12 = system: KM12
M14 = system: M14
MDA-N = system: MDA-N
MOLT-4 = system: MOLT-4
NCI-H226 = system: NCI-H226
OVCAR-5 = system: OVCAR-5
RPMI-8226 = system: RPMI-8226
SF-268 = system: SF-268
SK-MEL-5 = system: SK-MEL-5
SK-OV-3 = system: SK-OV-3
T47D = system: T47D
TK-10 = system: TK-10
UACC-257 = system: UACC-257
NCI-H522 = system: NCI-H522

Row | SMILES | GI50 (CAKI-1) | GI50 (CCRF-CEM) | GI50 (HCC 2998) | GI50 (HCT-15) | GI50 (HOP-92) | GI50 (IGROV-1) | GI50 (KM12) | GI50 (M14) | GI50 (MDA-N) | GI50 (MOLT-4) | GI50 (NCI-H226) | GI50 (OVCAR-5) | GI50 (RPMI-8226) | GI50 (SF-268) | GI50 (SK-MEL-5) | GI50 (SK-OV-3) | GI50 (T47D) | GI50 (TK-10) | GI50 (UACC-257) | GI50 (NCI-H522)
1 | CC1(C)C(C#N)=[N+]([O-])C(C)(C)N1O | > 100 µM (inactive) | 33.5 µM (inactive) | > 100 µM (inactive) | > 100 µM | > 100 µM (inactive) | > 100 µM (inactive) | > 100 µM (inactive) | > 100 µM (inactive) | 65.8 µM (inactive) | 35.5 µM (inactive) | > 100 µM (inactive) | > 100 µM (inactive) | > 100 µM (inactive) | > 100 µM (inactive) | 34.6 µM (inactive) | > 100 µM (inactive) | > 100 µM (inactive) | > 100 µM (inactive) | > 100 µM (inactive) | 
2 | CC(=O)N(CCc1ccccc1)C(C#N)c1ccc(OCCCCCCCCCCOc2ccc(C(C#N)N(CCc3ccccc3)C(C)=O)cc2)cc1 (stereo unspecified) | 97.3 µM (inactive) | > 100 µM (inactive) | > 100 µM (inactive) | 99.1 µM | 15 µM (inactive) | 31.6 µM (inactive) | > 100 µM (inactive) | > 100 µM (inactive) | > 100 µM (inactive) | > 100 µM (inactive) | 22 µM (inactive) | > 100 µM (inactive) |  | 21.7 µM (inactive) | > 100 µM (inactive) | 22.9 µM (inactive) | 41 µM (inactive) | 41.2 µM (inactive) | > 100 µM (inactive) | 
3 | Nc1ncnc2c1ncn2C1CCC(COS(N)(=O)=O)C1 (stereo unspecified) | > 100 µM (inactive) | > 100 µM (inactive) | > 100 µM (inactive) | > 100 µM | > 100 µM (inactive) | > 100 µM (inactive) | > 100 µM (inactive) | > 100 µM (inactive) | > 100 µM (inactive) | 46.9 µM (inactive) | > 100 µM (inactive) | > 100 µM (inactive) | > 100 µM (inactive) | > 100 µM (inactive) | > 100 µM (inactive) | > 100 µM (inactive) | 93.5 µM (inactive) | > 100 µM (inactive) | > 100 µM (inactive) | 
4 | C=CCOC(OCC=C)/C(Br)=C/C | 16.7 µM (inactive) | 10.3 µM (inactive) | 80.9 µM (inactive) | 24 µM | 56.5 µM (inactive) |  | > 100 µM (inactive) | 32.1 µM (inactive) | 37 µM (inactive) |  | > 100 µM (inactive) | 49.5 µM (inactive) | > 100 µM (inactive) | 28.8 µM (inactive) | 37 µM (inactive) | > 100 µM (inactive) | 31.8 µM (inactive) | > 100 µM (inactive) | > 100 µM (inactive) | 
5 | C=C(C)[C@@]1(OC(=O)c2cc([N+](=O)[O-])cc([N+](=O)[O-])c2)C[C@@H]2CCCC[C@@H]21 | > 100 µM (inactive) | > 100 µM (inactive) | 59.6 µM (inactive) | > 100 µM |  | > 100 µM (inactive) | > 100 µM (inactive) | 53.6 µM (inactive) | > 100 µM (inactive) | > 100 µM (inactive) | > 100 µM (inactive) | > 100 µM (inactive) | 45.4 µM (inactive) | > 100 µM (inactive) | > 10 µM (inactive) | > 100 µM (inactive) | > 100 µM (inactive) | > 100 µM (inactive) | > 100 µM (inactive) | > 100 µM (inactive)
6 | O=C1OCC(CN2CCC(n3c(=O)[nH]c4ccccc43)CC2)=C1c1ccccc1 | 22.9 µM (inactive) | 13.7 µM (inactive) | 23.8 µM (inactive) | 23 µM |  | 22.2 µM (inactive) | 16.3 µM (inactive) | 18.3 µM (inactive) | 26.2 µM (inactive) | 22 µM (inactive) | 25.4 µM (inactive) | 41 µM (inactive) | 28.8 µM (inactive) | 28.1 µM (inactive) | 15.3 µM (inactive) | 37.2 µM (inactive) | 6.03 µM (inactive) | 28.1 µM (inactive) | 23.4 µM (inactive) | 19.2 µM (inactive)

— ChEMBL document CHEMBL1201862, “PubChem BioAssay data set” (2004)
